O=C(O)c1ccc(C(=O)O)o1
Conditions | solubility (mole fraction)
in acetic acid, 303.55 K | 0.000242
in acetic acid, 313.25 K | 0.000319
in acetic acid, 322.95 K | 0.000471
in acetic acid, 332.75 K | 0.000656
in acetic acid, 342.45 K | 0.000874
in acetic acid, 352.25 K | 0.00111
in ethanol, 299.35 K | 0.00298
in ethanol, 305.35 K | 0.00337
in ethanol, 311.25 K | 0.004
in ethanol, 319.25 K | 0.00478
in ethanol, 323.15 K | 0.00526
in ethanol, 328.95 K | 0.0062
in ethanol, 334.75 K | 0.0072
in ethanol, 340.55 K | 0.00814
in ethanol, 346.35 K | 0.0093
in methanol, 297.35 K | 0.00371
in methanol, 303.35 K | 0.00408
in methanol, 309.35 K | 0.00484
in methanol, 315.25 K | 0.00563
in methanol, 321.15 K | 0.00661
in methanol, 326.85 K | 0.00758
in methanol, 332.65 K | 0.00884
in water, 303.55 K | 0.000141
in water, 313.25 K | 0.000195
in water, 322.95 K | 0.000302
in water, 332.75 K | 0.00047
in water, 342.45 K | 0.000672
in water, 352.25 K | 0.000873
